According to US12371454B2, “Cyclic peptide compound having Kras inhibitory action” (priority 2019, dated 2025):
Starred links: 1 amine or outer side, 2 acyl side, 3 side chain; linkers in the order of their positions; H or OH if unused. Positions of bridges follow the written chain, without caps; N, C: chain ends. Non-standard residues stand in square brackets, D forms with d. Residues, ends and D or L forms follow the SMILES beside them. *: point of attachment. hPhe(3-Cl-4-CF3) = N[C@@H](CCc1ccc(C(F)(F)F)c(Cl)c1)C(=O)O; hPhe(3-F,4-CF3) = N[C@@H](CCc1ccc(C(F)(F)F)c(F)c1)C(=O)O; NMePhe(3-CN) = CN[C@@H](Cc1cccc(C#N)c1)C(=O)O; NMePhe(4-Cl) = CN[C@@H](Cc1ccc(Cl)cc1)C(=O)O; NMePhe(4-Me) = CN[C@@H](Cc1ccc(C)cc1)C(=O)O; NMePhe(2-Cl) = CN[C@@H](Cc1ccccc1Cl)C(=O)O; NMedβ3hAla = C[C@H](CC(=O)[*:2])N(C)[*:1]; NMeAla(cPent) = CN[C@@H](CC1CCCC1)C(=O)O; NMeAla(cPr) = CN[C@@H](CC1CC1)C(=O)O; NMe3Pal = CN[C@@H](Cc1cccnc1)C(=O)O; NMeCha = CN[C@@H](CC1CCCCC1)C(=O)O; NMeChg = CN[C@H](C(=O)O)C1CCCCC1; NMeI = CC[C@H](C)[C@H](NC)C(=O)O; Gly(cBu) = N[C@H](C(=O)O)C1CCC1; NMeD = CN[C@@H](CC(=O)O)C(=O)O; NMeL = CN[C@@H](CC(C)C)C(=O)O; NMeV = CN[C@H](C(=O)O)C(C)C; d(β3hA) = C[C@@H](N)CC(=O)O; dIva = CC[C@@](C)(N)C(=O)O; NMeA = CN[C@@H](C)C(=O)O; Piperidide = C1CCN(*)CC1; Ac5c = NC1(C(=O)O)CCCC1; Aze = O=C(O)[C@@H]1CCN1; Sar = CNCC(=O)O

How the values were obtained:
[1] = system: Human pancreatic cancer cell line AsPC-1; assay: Measurement of AsPC-1 cell growth inhibition (AsPC-1 CGI); type: cell-based; details: 96 h
In short: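 AsPC-1 cells in 15% FBS RPMI-1640 were exposed to test compound for 96 hours at 37° C, with CellTiter-Glo as endpoint.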

[2] = target: T1, Kras and SOS1 (biotin-tagged human Kras loaded with GDP, His-tagged human SOS1) (Homo sapiens, UniProt P01116, G12D); assay: Protein-protein interaction inhibition between Kras and SOS1 (KrasGl2D-SOS PPI) using AlphaScreen; type: binding; details: AlphaScreen; biotin-tagged human Kras loaded with GDP, His-tagged human SOS1; read-out: KRAS G12D-SOS PPI IC50
T1 construct: made in house; host or cells: E. coli (stated for Kras only)
T1 sequence (P01116 1-188 isoform P01116-2 G12D): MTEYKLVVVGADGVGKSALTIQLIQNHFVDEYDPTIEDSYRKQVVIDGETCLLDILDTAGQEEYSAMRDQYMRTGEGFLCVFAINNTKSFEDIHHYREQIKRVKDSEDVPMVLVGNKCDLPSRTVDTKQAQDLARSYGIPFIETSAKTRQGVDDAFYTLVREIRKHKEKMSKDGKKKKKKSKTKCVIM
In short: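 Energy transfer from nickel-chelate donor beads bound to His-SOS1 to streptavidin acceptor beads bound to biotin-Kras, expressed in E. coli and loaded with GDP after purification, was monitored. Donors were excited at 680 nm; singlet oxygen reaching acceptors gave emission read at 520-620 nm.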

Structure (SMILES) | IC50 [1] | IC50 [2]
CC[C@H](C)[C@@H]1NC(=O)[C@H](CC(C)C)N(C)C(=O)C[C@@H](C)NC(=O)[C@H](C(C)C)N(C)C(=O)C2(CCCC2)NC(=O)[C@@H]2CCCN2C(=O)[C@H](CCc2ccc(C(F)(F)F)c(F)c2)NC(=O)CN(C)C(=O)[C@H](CC2CCCCC2)N(C)C(=O)[C@@H]2CCN2C(=O)CN(C)C1=O [Compound 211] (cyclo([Ac5c][NMeV][d(β3hA)][NMeL]I[Sar][Aze][NMeCha][Sar][hPhe(3-F,4-CF3)]P)) | 100 to 500 nM | 43 nM
CC[C@H](C)[C@@H]1NC(=O)[C@H](CC(C)C)N(C)C(=O)C[C@@H](C(=O)N(C)C)N(C)C(=O)[C@H]([C@@H](C)CC)N(C)C(=O)C2(CCCC2)NC(=O)[C@H](Cc2ccccc2Cl)N(C)C(=O)[C@H](CCc2ccc(C(F)(F)F)c(Cl)c2)NC(=O)CN(C)C(=O)[C@H](Cc2ccc(C)cc2)N(C)C(=O)[C@@H]2CCN2C(=O)[C@H](C)N(C)C1=O [Compound 216] ([NMeL]I[NMeA][Aze][NMePhe(4-Me)][Sar][hPhe(3-Cl-4-CF3)][NMePhe(2-Cl)][Ac5c][NMeI][NMeD]-NMe2; lactam N-11) | 100 to 500 nM | 8 nM
CC[C@H](C)[C@@H]1NC(=O)[C@H](CC(C)C)N(C)C(=O)C[C@@H](C(=O)N2CCCCC2)N(C)C(=O)[C@H](C(C)C)N(C)C(=O)C2(CCCC2)NC(=O)[C@@H]2CCCN2C(=O)[C@H](CCc2ccc(C(F)(F)F)c(Cl)c2)NC(=O)CN(C)C(=O)[C@H](CC2CCCC2)N(C)C(=O)CN(C)C(=O)CN(C)C1=O [Compound 220] ([NMeL]I[Sar][Sar][NMeAla(cPent)][Sar][hPhe(3-Cl-4-CF3)]P[Ac5c][NMeV][NMeD]-Piperidide; lactam N-11) | 100 to 500 nM | 3.1 nM
CC(C)C[C@H]1C(=O)N[C@@H](C2CCC2)C(=O)N(C)CC(=O)N(C)CC(=O)N(C)[C@@H](CC2CCCCC2)C(=O)N(C)CC(=O)N[C@@H](CCc2ccc(C(F)(F)F)c(Cl)c2)C(=O)N2CCC[C@H]2C(=O)NC2(CCCC2)C(=O)N(C)[C@@H](C(C)C)C(=O)N(C)[C@H](C(=O)N2CCCCC2)CC(=O)N1C [Compound 221] ([NMeL][Gly(cBu)][Sar][Sar][NMeCha][Sar][hPhe(3-Cl-4-CF3)]P[Ac5c][NMeV][NMeD]-Piperidide; lactam N-11) | 100 to 500 nM | 2.8 nM
CC[C@H](C)[C@@H]1NC(=O)[C@H](CC(C)C)N(C)C(=O)C[C@@H](C)N(C)C(=O)[C@H](C(C)C)N(C)C(=O)[C@@](C)(CC)NC(=O)[C@@H]2CCCN2C(=O)[C@H](CCc2ccc(C(F)(F)F)c(Cl)c2)NC(=O)CN(C)C(=O)[C@H](CC2CCCCC2)N(C)C(=O)CN(C)C(=O)CN(C)C1=O [Compound 223] (cyclo(I[Sar][Sar][NMeCha][Sar][hPhe(3-Cl-4-CF3)]P[dIva][NMeV][NMedβ3hAla][NMeL])) | 100 to 500 nM | 18 nM
CC[C@H](C)[C@@H]1NC(=O)[C@H](CC(C)C)N(C)C(=O)C[C@@H](C(=O)N2CCCCC2)N(C)C(=O)[C@H](C(C)C)N(C)C(=O)C2(CCCC2)NC(=O)[C@@H]2CCCN2C(=O)[C@H](CCc2ccc(C(F)(F)F)c(F)c2)NC(=O)CN(C)C(=O)[C@H](Cc2ccc(Cl)cc2)N(C)C(=O)CN(C)C(=O)CN(C)C1=O [Compound 229] ([NMeL]I[Sar][Sar][NMePhe(4-Cl)][Sar][hPhe(3-F,4-CF3)]P[Ac5c][NMeV][NMeD]-Piperidide; lactam N-11) | 100 to 500 nM | 6.7 nM
CC[C@H](C)[C@@H]1NC(=O)[C@H](CC(C)C)N(C)C(=O)C[C@@H](C(=O)N2CCCCC2)N(C)C(=O)[C@H](C2CCCCC2)N(C)C(=O)C2(CCCC2)NC(=O)[C@@H]2CCCN2C(=O)[C@H](CCc2ccc(C(F)(F)F)c(Cl)c2)NC(=O)CN(C)C(=O)[C@H](CC2CC2)N(C)C(=O)CN(C)C(=O)CN(C)C1=O [Compound 234] ([NMeL]I[Sar][Sar][NMeAla(cPr)][Sar][hPhe(3-Cl-4-CF3)]P[Ac5c][NMeChg][NMeD]-Piperidide; lactam N-11) | > 500 nM | 2.1 nM
CC[C@H](C)[C@@H]1NC(=O)[C@H](CC(C)C)N(C)C(=O)C[C@@H](C)N(C)C(=O)[C@H](C(C)C)N(C)C(=O)C2(CCCC2)NC(=O)[C@@H]2CCCN2C(=O)[C@H](CCc2ccc(C(F)(F)F)c(Cl)c2)NC(=O)CN(C)C(=O)[C@H](Cc2cccc(C#N)c2)N(C)C(=O)CN(C)C(=O)CN(C)C1=O [Compound 238] (cyclo([Ac5c][NMeV][NMedβ3hAla][NMeL]I[Sar][Sar][NMePhe(3-CN)][Sar][hPhe(3-Cl-4-CF3)]P)) | 100 to 500 nM | 12 nM
CC[C@H](C)[C@@H]1NC(=O)[C@H](CC(C)C)N(C)C(=O)C[C@@H](C(=O)N(C)C)N(C)C(=O)[C@H]([C@@H](C)CC)N(C)C(=O)C2(CCCC2)NC(=O)[C@H](Cc2cccnc2)N(C)C(=O)[C@H](CCc2ccc(C(F)(F)F)c(Cl)c2)NC(=O)CN(C)C(=O)[C@H](Cc2ccc(C)cc2)N(C)C(=O)[C@@H]2CCN2C(=O)[C@H](C)N(C)C1=O [Compound 243] ([NMeL]I[NMeA][Aze][NMePhe(4-Me)][Sar][hPhe(3-Cl-4-CF3)][NMe3Pal][Ac5c][NMeI][NMeD]-NMe2; lactam N-11) | 20 to 50 nM | 0.43 nM
